Data on 16 compounds can be found in patent publication US20090202439A1, “Methods for treatment of angiogenesis” (The Johns Hopkins University, priority 2004, published 2009).

In series [1] the test system is PECAM-1. The series can be described thus: PECAM-1 protein expression by Western immunoblot in HUVECs. It is filed as cell-based, human. Particulars: for VEGF/LacCer induced PECAM-1: HUVECs pre-treated with NAC, DPI or PDTC; for bypass of inhibitory effect of D-PDMP on VEGF induced PECAM-1 protein expression: HUVECs treated with D-PDMP, then lipid; for PECAM-1 expression induced by lipid: 2.5 μM for 4 hrs; for reversal of inhibitory effect of PPMP on VEGF induced PECAM-1 expression: PPMP 90 min, then lipid 2.5 μM 4 hrs, GlcCer to a lesser extent than LacCer. How it is done:
Cell Culture—Human umbilical vein endothelial cells (HUVEC) and endothelial cells growth medium EGM™ were purchased from Cambrex, (Walkersville, Md.) and were cultured in EGM™ medium supplemented with 10% fetal bovine serum (FBS).
Western Immunoblot Analysis—[…] of protein was resolved by 10% SDS-PAGE and then transferred to nitrocellulose membrane. The membrane-bound primary antibodies were visualized by horseradish peroxidase-conjugated secondary antibody using chemiluminescence kit. The films were then densitometrically scanned using Molecular Dynamics Image Scanner and analyzed using Image Quant software.

Series [2] has as its system NF-κB. The series can be described thus: Cytosolic NF-κB expression in HUVECs. It is filed as cell-based, human. Conditions: HUVECs pre-treated with NAC, DPI or PDTC.
Series [3] has as its system PECAM-1. The series can be described thus: PECAM-1 mRNA expression by real-time RT-PCR in HUVECs. It is filed as cell-based, human.
In series [4] the test system is REN (WT) cells. The series can be described thus: In vitro angiogenesis assay in REN (WT) cells lacking PECAM-1. Particulars: VEGF 25 ng/ml or LacCer 2.5 μM 4 hrs, compared with 2% FBS treated cells. It is filed as cell-based, human. How it is done: (§1) REN (WT) [A] were either stimulated with VEGF (25 ng/ml) [B]; LacCer (2.5 μM) [C] or REN (rhPECAM-1) [D] with VEGF (25 ng/ml) (E) or LacCer [F] for 4 hrs and then in vitro angiogenesis assays were performed as described earlier. Results shown here are from set of experiments performed in triplicate yielding similar results.
(§2) Cell Culture—Human umbilical vein endothelial cells (HUVEC) and endothelial cells growth medium EGM™ were purchased from Cambrex, (Walkersville, Md.) and were cultured in EGM™ medium supplemented with 10% fetal bovine serum (FBS). Human mesoendothelioma cell line [(REN— wild type (WT)] which lacks endogenous PECAM-1 expression and REN (mt-rhPECAM-1) expressing human PECAM-1 was kindly provided by Dr. Steven Albelda, University of Pennsylvania Medical Center, USA. REN-WT was grown in RPMI 1640 supplemented with 101/&FBS. REN (mtrhPECAM-1) was cultured in the same medium with G418 (0.5 g/L Gibco).
(§3) In vitro angiogenesis/tube formation assay—In vitro angiogenesis assay was performed using a commercially available kit from Chemicon Inc (Temecula, Calif.).

The subject of series [5] is REN (mt-rhPECAM-1). The series can be described thus: In vitro angiogenesis assay in REN cells transfected with human PECAM-1 gene. Conditions: REN transfected with human PECAM-1 gene, VEGF 25 ng/ml or LacCer 4 hrs, compared with control. The series is classed as cell-based. How it is done: as §1, §2, §3
Series [6] concerns LacCer.
Series [7] relates to GlcCer. Particulars: HUVECs.
Series [8] deals with HUVECs. The series can be described thus: In vitro angiogenesis/tube formation assay in HUVECs. The series is classed as cell-based, human. Conditions: for bypass of inhibitory effect of D-PDMP on VEGF induced angiogenesis: HUVECs treated with D-PDMP, then lipid; for reversal of inhibitory effect of PPMP on VEGF induced angiogenesis: then lipid 2.5 μM 4 hrs, GlcCer to a lesser extent than LacCer. The method, then: as §3

Series [9] has as its system GalT-V. The series can be described thus: GalT-V protein expression by immunoblot in siRNA transfected HUVECs. The series is classed as cell-based, human. Particulars: siRNA duplex 100 nM, 48 hrs after transfection.
Experimental: Next, 48 hrs after transfection cells were harvested lysed, and GalT-V protein levels were analyzed by immunoblot probed with GalT-V antibody or b-actin, as shown in the figure. GalT-V expression was expressed as % control, when normalized with b-actin expression and the relative quantification values are shown below the immunoblot. (C) HUVECs were transfected with either scrambled GalT-V siRNA (100 nM) or GalT-V siRNA (100 nM). […] The data shown is representative of two identical experiments yielding similar result. […] HUVECs were transfected with siRNA duplexes using Oligofectamine (Invitrogen), following protocol supplied by the manufacturer. Western Immunoblot Analysis-25 g of protein was resolved by 10% SDS-PAGE and then transferred to nitrocellulose membrane. The membrane-bound primary antibodies were visualized by horseradish peroxidase-conjugated secondary antibody using chemiluminescence kit. The films were then densitometrically scanned using Molecular Dynamics Image Scanner and analyzed using Image Quant software.
Series [10] has as its system GalT-V. The series can be described thus: LacCer synthase (GalT-V) enzyme activity in siRNA transfected HUVECs. The series is classed as cell-based, human. Particulars: siRNA 100 nM, compared with scrambled siRNA treated cells.
Experimental: (C) HUVECs were transfected with either scrambled GalT-V siRNA (100 nM) or GalT-V siRNA (100 nM). 48 hrs post transfection, cells were lysed and Cer synthase enzyme activity was performed as described in “Materials and Methods”. […] HUVECs were transfected with siRNA duplexes using Oligofectamine (Invitrogen), following protocol supplied by the manufacturer.
The subject of series [11] is GbOse3Cer. The series is described as follows: GbOse3Cer synthesis in HUVECs. The series is classed as cell-based, human. Particulars: cells treated with VEGF, with and without D-PDMP (data not shown).
Series [12] relates to HUVEC. The series is described as follows: Apoptosis in HUVEC. The series is classed as cell-based, human. Particulars: D-PDMP 20 μM up to 4-6 hrs, HUVEC (data not shown).
Series [13] deals with LacCer synthase. Conditions: previously shown; cited from earlier work.
Setting [14] is: HUVECs, VEGF 30 ng/ml for 4 hrs.
Setting [15] is: VEGF 25 ng/ml 4 hrs, compared to scrambled siRNA transfected cells.
The mark [16] stands for this setting: CC 5.0 μM, GÖ 6850 and 6976 50 nM, BPB 10 μM, MAFP 3.0 μM, compared with vehicle (DMSO).
Where [17] appears, read: HUVECs pretreated with PPMP 20 μM.
Setting [18] is: D-PDMP 20 μM for 90 min, then VEGF 25 ng/ml.
Where [19] appears, read: cells treated with increasing concentrations of L-PDMP.

Where two headings read alike, the source gives them in different places.

For `S=C(S)N1CCCC1` [PDTC, 1-pyrrolidinecarbodithioicacid], in [1], the “VEGF/LacCer induced PECAM-1” value is recorded as “significantly blunted”. Moreover, the “VEGF/LacCer induced cytosolic NF-κB expression” value in series [2] is “significantly blunted”.

With `CC(=O)N[C@@H](CS)C(=O)O` [NAC, N-Acetyl-L-cysteine], the “VEGF/LacCer induced PECAM-1” value in series [1] is recorded as “significantly blunted”.

Consider “Vascular endothelial growth factor [VEGF]”, for which the “time of maximal PECAM-1 mRNA expression” value in [3] (HUVECs, VEGF 25 ng/ml, different time points) fell in the range of 4 to 5 h. The “PECAM-1 mRNA expression” value in series [3] (setting [14]) is “Maximal”; in [3] (HUVECs, VEGF 5-30 ng/ml) it was “dose-dependent increase”. Further, the “time of maximal PECAM-1 protein expression” value in [1] (HUVECs, VEGF 25 ng/ml, various time intervals) amounted to 4 h. Further, in series [1] (setting [14]), the PECAM-1 protein expression result is given as “maximal”. In addition, the tube formation entry is recorded as “failed to form tube-like structures” in [4] and “induced tube formation” in series [5]. In series [6] (HUVECs, VEGF 25 ng/ml, time-dependent, from 10 min), the “de novo biosynthesis of LacCer” value was “significantly stimulated”. The “biosynthesis of GlcCer” value in series [7] (VEGF 25 ng/ml) is recorded as “stimulated”.

For the compound “GalT-V specific siRNA duplex: siRNA for human GalT-V: 5′-CGG AGU GAG UGG CUU AAC A dTdT-3′ (sense), 5′-UGU UAA GCC ACU CAC UCC G dTdT-3′ (antisense) (sense CGGAGUGAGUGGCUUAACATT; antisense UGUUAAGCCACUCACUCCGTT; chemistry not fully specified)”, in series [1] (setting [15]), the “PECAM-1 expression in GalT-V silenced cells treated with VEGF” value is “No change”. Further, the “angiogenesis in GalT-V silenced cells treated with VEGF” value in series [8] (setting [15]) was “blunted”. Further, the “decrease of GalT-V protein expression” value in series [9] was around 70%. The “decrease of GalT-V enzyme activity” value in [10] was around 62%.

On to `CN(C)CCCn1cc(C2=C(c3c[nH]c4ccccc34)C(=O)NC2=O)c2ccccc21` [GÖ 6850], for which the “VEGF/LacCer induced PECAM-1 expression” value in series [1] (setting [16]) is “abrogated”. Moreover, the “VEGF/LacCer induced tube formation” value in series [8] (setting [16]) is listed as “abrogated”.

For `Cn1c2ccccc2c2c3c(c4c5ccccc5n(CCC#N)c4c21)CNC3=O` [GÖ 6976], the “VEGF/LacCer induced PECAM-1 expression” value in series [1] (setting [16]) is listed as “abrogated”. Also, the “VEGF/LacCer induced tube formation” value in [8] (setting [16]) is recorded as “abrogated”.

Regarding `CCCCCCCCCCCCCCCC(=O)NC(CN1CCOCC1)C(O)c1ccccc1` (centres unmarked) [PPMP], the “VEGF induced PECAM-1 expression” value in series [1] (setting [17]) is on record as “mitigation”. Moreover, in series [8] (setting [17]), the VEGF induced angiogenesis entry is listed as “mitigation”.

Consider `c1ccc2c(c1)[I+]c1ccccc1-2` [DPI, diphenylene iodonium], for which the “VEGF/LacCer induced PECAM-1” value in series [1] is “significantly blunted”. Moreover, in series [2], the “VEGF/LacCer induced cytosolic NF-κB expression” value is on record as “significantly blunted”.

In the case of bromophenacyl bromide [BPB], the “VEGF/LacCer induced PECAM-1 expression” value in series [1] is given as “abrogated”. The “VEGF/LacCer induced tube formation” value in series [8] is recorded as “abrogated”.

For the compound glucosylceramide [GlcCer], in [1], the “bypass of inhibitory effect of D-PDMP on VEGF induced PECAM-1 protein expression” value was “failed to bypass”. In addition, in [1] (HUVECs), the “PECAM-1 expression induced by lipid” value is given as “did not induce” and the “reversal of inhibitory effect of PPMP on VEGF induced PECAM-1 expression” value is “also reversed”. The “bypass of inhibitory effect of D-PDMP on VEGF induced angiogenesis” value in [8] is “failed to bypass”. Further, the “reversal of inhibitory effect of PPMP on VEGF induced angiogenesis” value in series [8] (HUVECs) is “also reversed”.

On to `CCCCCCCCCC(=O)N[C@H](CN1CCOCC1)[C@H](O)c1ccccc1` [D-PDMP, (1R,2R)-1-phenyl-2-decanoylamino-3-morpholino-1-propanol], for which the “VEGF induced PECAM-1 mRNA expression” value in [3] (setting [18]) was “abrogated”. Besides, the “VEGF induced PECAM-1 protein expression” value in series [1] (setting [18]) is given as “abrogated”. The “VEGF-induced PECAM-1 expression” value in series [1] (HUVECs pre-incubated with D-PDMP 10-30 μM, then VEGF 25 ng/ml 4 hrs) was “concentration-dependent inhibition”. Moreover, the “level of GbOse3Cer synthesis” value in series [11] is “similar”. The VEGF induced angiogenesis entry in series [8] (HUVECs, D-PDMP) is listed as “significantly mitigated”. Also, in [12], the apoptosis entry is reported as “did not induce apoptosis”. In [6] (HUVECs pretreated with 20 μM D-PDMP, then VEGF 25 ng/ml), the “VEGF induced LacCer biosynthesis” value is “mitigated”. Also, in series [7] (D-PDMP 20 μM pretreatment, as early as 10 min), the “VEGF induced GlcCer synthesis” value is given as “inhibited”. The “action on LacCer synthase” value in series [13] is recorded as “inhibitor of purified LacCer synthase”.

With Lactosylceramide [LacCer], the “bypass of D-PDMP inhibition of PECAM-1 mRNA expression” value in series [3] (D-PDMP 20 μM 90 min, then VEGF 25 ng/ml and LacCer 2.5 μM 4 hrs) is recorded as “bypassed”. Moreover, in [1], the “bypass of inhibitory effect of D-PDMP on VEGF induced PECAM-1 protein expression” value is given as “bypassed”. In addition, in series [1] (HUVECs), the “PECAM-1 expression induced by lipid” value is “significantly induced” and the “reversal of inhibitory effect of PPMP on VEGF induced PECAM-1 expression” value is given as “reversed”. The “reversal of inhibitory effect of PPMP on VEGF induced angiogenesis” value in series [8] (HUVECs) is on record as “reversed”. In [8] (HUVECs, independent of presence/absence of D-PDMP and VEGF), the induction of angiogenesis result is “significantly induced”. Also, in [4], the tube formation result is “failed to form tube-like structures”. In addition, in [5], the tube formation entry is listed as “induced tube formation”.

Turning to `CCCCCCCCCCCCC/C=C/[C@@H](O)[C@H](CO)NC(C)=O` [C2ceramide], in series [1], the “bypass of inhibitory effect of D-PDMP on VEGF induced PECAM-1 protein expression” value is on record as “failed to bypass”. For the same compound, the “PECAM-1 expression induced by lipid” value in series [1] (HUVECs) was “did not induce”. For the same compound, in series [8], the “bypass of inhibitory effect of D-PDMP on VEGF induced angiogenesis” value is “failed to bypass”.

As for digalactosylceramide [DGDG], the “bypass of inhibitory effect of D-PDMP on VEGF induced PECAM-1 protein expression” value in series [1] is given as “failed to bypass”. In [1] (HUVECs), the “PECAM-1 expression induced by lipid” value is “did not induce”. Besides, the “bypass of inhibitory effect of D-PDMP on VEGF induced angiogenesis” value in series [8] was “failed to bypass”.

For `CC(C)c1cc(/C=C(\C#N)C(=O)NCCCc2ccccc2)cc(C(C)C)c1O` [SU 1498], the “LacCer induced tube formation/angiogenesis” value in [8] (HUVECs pre-treated with SU 1498 1 hr, then LacCer) is listed as “not LacCer”. The “VEGF induced tube formation/angiogenesis” value in [8] (HUVECs pre-treated with SU 1498 1 hr, then VEGF) is listed as “failed to induce tube formation/angiogenesis”.

With `CCCCCCCCCC(=O)N[C@@H](CN1CCOCC1)[C@@H](O)c1ccccc1` [L-PDMP], in series [1] (setting [19]), the PECAM-1 expression result is recorded as “significantly induced”. The angiogenesis result in series [8] (setting [19]) is listed as “significantly induced”. The “action on LacCer synthase” value in series [13] is recorded as “potent activator”.
